Consider 1 molecule from ChEMBL document CHEMBL5696441 (Nat Chem Biol, 2011).

In data set [1] the target is Vascular endothelial growth factor receptor 2 (Homo sapiens) (UniProt P35968). Briefly: Inhibition of human VEGFR2 assessed as residual activity at 1 uM using polyEY as substrate in presence of 33P-ATP by ProQinase assay relative to control.
The test system of data set [2] is Tyrosine-protein kinase ABL1 (Homo sapiens), P00519 [F317I]. Briefly: Inhibition of human ABL1 F317I mutant assessed as residual activity at 1 uM using Poly(Ala,Glu,Lys,Tyr)6:2:5:1 as substrate in presence of 33P-ATP by ProQinase assay relative to control.
Data set [3] deals with T1, Muscle, skeletal receptor tyrosine-protein kinase (Homo sapiens) (UniProt O15146).
T1 sequence (whole entry): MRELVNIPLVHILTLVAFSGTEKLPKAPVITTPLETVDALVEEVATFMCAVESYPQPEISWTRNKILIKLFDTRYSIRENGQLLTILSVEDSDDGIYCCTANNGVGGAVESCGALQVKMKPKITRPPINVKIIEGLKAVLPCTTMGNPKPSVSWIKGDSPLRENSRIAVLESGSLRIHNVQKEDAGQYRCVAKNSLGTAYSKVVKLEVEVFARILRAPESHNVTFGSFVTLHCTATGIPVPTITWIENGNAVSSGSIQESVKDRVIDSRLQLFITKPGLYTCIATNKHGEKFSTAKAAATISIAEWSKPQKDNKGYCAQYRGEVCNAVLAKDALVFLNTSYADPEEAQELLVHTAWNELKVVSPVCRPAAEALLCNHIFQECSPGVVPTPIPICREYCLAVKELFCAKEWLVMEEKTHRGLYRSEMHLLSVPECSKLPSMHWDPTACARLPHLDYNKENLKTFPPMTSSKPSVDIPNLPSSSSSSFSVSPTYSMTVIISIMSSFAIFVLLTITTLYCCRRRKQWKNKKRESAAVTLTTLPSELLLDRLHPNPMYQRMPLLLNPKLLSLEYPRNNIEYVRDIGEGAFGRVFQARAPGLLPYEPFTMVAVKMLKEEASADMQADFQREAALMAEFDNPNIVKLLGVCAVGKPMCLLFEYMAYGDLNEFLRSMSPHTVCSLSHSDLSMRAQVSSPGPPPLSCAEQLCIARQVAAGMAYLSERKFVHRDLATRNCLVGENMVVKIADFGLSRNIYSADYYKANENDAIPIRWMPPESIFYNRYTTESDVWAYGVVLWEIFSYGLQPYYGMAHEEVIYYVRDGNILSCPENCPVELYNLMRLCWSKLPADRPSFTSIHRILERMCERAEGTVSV
Nature of the data set: Inhibition of human MUSK assessed as residual activity at 1 uM using Poly(Ala,Glu,Lys,Tyr)6:2:5:1 as substrate in presence of 33P-ATP by ProQinase assay relative to control.

Data set [4] has as its system Epidermal growth factor receptor (Homo sapiens), P00533 [UNDEFINED MUTATION]. Nature of the data set: Inhibition of EGFR E746-A750del mutant (unknown origin) assessed as remaining activity at 1 uM by Kinome scan method relative to control.
The target in data set [5] is High affinity nerve growth factor receptor (Homo sapiens) (UniProt P04629). Briefly: Inhibition of human TRKA assessed as residual activity at 1 uM using PolyEY as substrate in presence of 33P-ATP by ProQinase assay relative to control.
Sequence of High affinity nerve growth factor receptor (Homo sapiens) (P04629 33-796 limits assumed): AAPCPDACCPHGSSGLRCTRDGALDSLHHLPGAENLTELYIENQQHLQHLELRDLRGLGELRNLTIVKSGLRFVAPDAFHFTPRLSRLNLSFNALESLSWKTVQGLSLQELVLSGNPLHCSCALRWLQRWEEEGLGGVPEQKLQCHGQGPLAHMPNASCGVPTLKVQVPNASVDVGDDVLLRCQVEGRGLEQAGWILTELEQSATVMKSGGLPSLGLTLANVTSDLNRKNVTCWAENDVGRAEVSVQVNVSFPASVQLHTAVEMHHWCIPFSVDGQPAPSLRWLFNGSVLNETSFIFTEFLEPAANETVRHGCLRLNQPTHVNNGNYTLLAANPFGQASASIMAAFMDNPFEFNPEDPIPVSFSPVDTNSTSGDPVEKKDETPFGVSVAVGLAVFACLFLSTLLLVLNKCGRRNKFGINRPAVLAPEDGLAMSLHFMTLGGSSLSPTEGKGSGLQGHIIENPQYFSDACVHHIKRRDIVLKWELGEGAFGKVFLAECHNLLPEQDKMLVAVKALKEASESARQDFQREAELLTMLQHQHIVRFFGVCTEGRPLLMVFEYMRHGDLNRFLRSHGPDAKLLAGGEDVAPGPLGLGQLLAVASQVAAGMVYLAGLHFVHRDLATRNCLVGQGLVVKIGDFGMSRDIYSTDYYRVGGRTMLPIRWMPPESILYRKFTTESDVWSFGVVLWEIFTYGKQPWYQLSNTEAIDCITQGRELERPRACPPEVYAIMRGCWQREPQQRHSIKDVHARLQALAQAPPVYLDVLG
The target of data set [6] is CYP2C19 (Homo sapiens, UniProt P33261). Nature of the data set: Inhibition of CYP2C19 (unknown origin) at 10 uM relative to control. It counts as ADME.
Sequence of CYP2C19 (P33261 whole entry): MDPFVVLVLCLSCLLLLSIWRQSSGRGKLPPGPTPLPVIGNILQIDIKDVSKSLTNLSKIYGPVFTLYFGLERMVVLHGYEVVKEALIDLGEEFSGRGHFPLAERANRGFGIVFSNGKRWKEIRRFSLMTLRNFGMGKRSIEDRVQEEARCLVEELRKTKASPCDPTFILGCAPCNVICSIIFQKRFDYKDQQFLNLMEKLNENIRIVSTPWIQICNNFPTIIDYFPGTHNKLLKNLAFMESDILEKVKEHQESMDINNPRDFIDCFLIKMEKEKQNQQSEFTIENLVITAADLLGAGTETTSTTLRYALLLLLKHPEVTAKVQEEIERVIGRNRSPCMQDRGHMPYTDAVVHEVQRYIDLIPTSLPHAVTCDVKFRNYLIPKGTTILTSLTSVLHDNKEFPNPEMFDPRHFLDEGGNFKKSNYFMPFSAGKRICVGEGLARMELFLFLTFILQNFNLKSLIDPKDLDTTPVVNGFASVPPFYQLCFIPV
Data set [7] addresses Aurora kinase B (Homo sapiens) (UniProt Q96GD4). Nature of the data set: Inhibition of human AuroraB assessed as residual activity at 1 uM using bio-4xCHKT as substrate in presence of 33P-ATP by ProQinase assay relative to control.
A short description of data set [8]: Anti-inflammatory activity against human derived medium respond PBMC cells assessed as inhibition in stimulated IL-10 cytokine release incubated for 2 hrs in the presence of LPS/SEB/aCD28 by Luminex based sandwich immunoassay. It counts as functional, cell-based.
Data set [9] deals with Mitogen-activated protein kinase kinase kinase kinase 4 (Homo sapiens) (UniProt O95819). Nature of the data set: Inhibition of human MAP4K4 assessed as residual activity at 1 uM using casein as substrate in presence of 33P-ATP by ProQinase assay relative to control.
Sequence of Mitogen-activated protein kinase kinase kinase kinase 4 (Homo sapiens) (O95819 2-1239 limits assumed): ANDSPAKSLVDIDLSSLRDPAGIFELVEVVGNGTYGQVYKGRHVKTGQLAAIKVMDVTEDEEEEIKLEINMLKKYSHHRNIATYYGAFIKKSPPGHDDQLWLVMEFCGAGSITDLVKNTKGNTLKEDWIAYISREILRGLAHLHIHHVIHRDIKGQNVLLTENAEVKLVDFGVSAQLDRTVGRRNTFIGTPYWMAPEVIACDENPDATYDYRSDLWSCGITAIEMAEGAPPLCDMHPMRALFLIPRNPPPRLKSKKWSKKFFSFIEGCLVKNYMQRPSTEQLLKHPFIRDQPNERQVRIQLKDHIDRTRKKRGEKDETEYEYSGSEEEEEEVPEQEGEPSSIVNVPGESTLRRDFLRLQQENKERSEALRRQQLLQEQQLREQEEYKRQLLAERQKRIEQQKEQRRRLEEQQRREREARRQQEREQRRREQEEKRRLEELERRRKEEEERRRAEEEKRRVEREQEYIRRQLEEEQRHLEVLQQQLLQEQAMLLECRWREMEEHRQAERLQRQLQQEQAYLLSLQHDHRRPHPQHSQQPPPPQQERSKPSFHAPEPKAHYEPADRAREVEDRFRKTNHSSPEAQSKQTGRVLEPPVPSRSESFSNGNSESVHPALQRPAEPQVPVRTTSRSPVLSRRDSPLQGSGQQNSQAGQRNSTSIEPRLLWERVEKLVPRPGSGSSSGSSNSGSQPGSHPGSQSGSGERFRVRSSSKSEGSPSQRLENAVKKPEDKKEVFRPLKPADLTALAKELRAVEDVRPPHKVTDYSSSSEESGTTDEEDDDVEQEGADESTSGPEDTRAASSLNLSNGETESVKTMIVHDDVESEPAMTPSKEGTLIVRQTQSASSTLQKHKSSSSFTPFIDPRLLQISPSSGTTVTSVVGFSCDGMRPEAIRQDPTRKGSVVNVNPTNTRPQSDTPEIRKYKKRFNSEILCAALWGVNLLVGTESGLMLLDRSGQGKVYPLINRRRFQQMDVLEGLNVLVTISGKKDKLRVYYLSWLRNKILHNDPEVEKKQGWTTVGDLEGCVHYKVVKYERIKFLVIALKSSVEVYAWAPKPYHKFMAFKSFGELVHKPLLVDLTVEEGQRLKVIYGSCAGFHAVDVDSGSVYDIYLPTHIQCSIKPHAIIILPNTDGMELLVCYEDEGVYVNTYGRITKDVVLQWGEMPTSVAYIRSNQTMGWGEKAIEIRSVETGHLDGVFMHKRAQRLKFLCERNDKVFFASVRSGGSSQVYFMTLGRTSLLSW
The target of data set [10] is Ribosomal protein S6 kinase beta-2 (Homo sapiens) (UniProt Q9UBS0). Nature of the data set: Inhibition of human S6K-beta assessed as residual activity at 1 uM using RBER-CHKtide as substrate in presence of 33P-ATP by ProQinase assay relative to control.
Data set [11] has as its target Atypical kinase COQ8B, mitochondrial (Homo sapiens) (UniProt Q96D53). Briefly: Inhibition of ADCK4 (unknown origin) assessed as remaining activity at 1 uM by Kinome scan method relative to control.

Sequence of Vascular endothelial growth factor receptor 2 (Homo sapiens) (P35968 whole entry): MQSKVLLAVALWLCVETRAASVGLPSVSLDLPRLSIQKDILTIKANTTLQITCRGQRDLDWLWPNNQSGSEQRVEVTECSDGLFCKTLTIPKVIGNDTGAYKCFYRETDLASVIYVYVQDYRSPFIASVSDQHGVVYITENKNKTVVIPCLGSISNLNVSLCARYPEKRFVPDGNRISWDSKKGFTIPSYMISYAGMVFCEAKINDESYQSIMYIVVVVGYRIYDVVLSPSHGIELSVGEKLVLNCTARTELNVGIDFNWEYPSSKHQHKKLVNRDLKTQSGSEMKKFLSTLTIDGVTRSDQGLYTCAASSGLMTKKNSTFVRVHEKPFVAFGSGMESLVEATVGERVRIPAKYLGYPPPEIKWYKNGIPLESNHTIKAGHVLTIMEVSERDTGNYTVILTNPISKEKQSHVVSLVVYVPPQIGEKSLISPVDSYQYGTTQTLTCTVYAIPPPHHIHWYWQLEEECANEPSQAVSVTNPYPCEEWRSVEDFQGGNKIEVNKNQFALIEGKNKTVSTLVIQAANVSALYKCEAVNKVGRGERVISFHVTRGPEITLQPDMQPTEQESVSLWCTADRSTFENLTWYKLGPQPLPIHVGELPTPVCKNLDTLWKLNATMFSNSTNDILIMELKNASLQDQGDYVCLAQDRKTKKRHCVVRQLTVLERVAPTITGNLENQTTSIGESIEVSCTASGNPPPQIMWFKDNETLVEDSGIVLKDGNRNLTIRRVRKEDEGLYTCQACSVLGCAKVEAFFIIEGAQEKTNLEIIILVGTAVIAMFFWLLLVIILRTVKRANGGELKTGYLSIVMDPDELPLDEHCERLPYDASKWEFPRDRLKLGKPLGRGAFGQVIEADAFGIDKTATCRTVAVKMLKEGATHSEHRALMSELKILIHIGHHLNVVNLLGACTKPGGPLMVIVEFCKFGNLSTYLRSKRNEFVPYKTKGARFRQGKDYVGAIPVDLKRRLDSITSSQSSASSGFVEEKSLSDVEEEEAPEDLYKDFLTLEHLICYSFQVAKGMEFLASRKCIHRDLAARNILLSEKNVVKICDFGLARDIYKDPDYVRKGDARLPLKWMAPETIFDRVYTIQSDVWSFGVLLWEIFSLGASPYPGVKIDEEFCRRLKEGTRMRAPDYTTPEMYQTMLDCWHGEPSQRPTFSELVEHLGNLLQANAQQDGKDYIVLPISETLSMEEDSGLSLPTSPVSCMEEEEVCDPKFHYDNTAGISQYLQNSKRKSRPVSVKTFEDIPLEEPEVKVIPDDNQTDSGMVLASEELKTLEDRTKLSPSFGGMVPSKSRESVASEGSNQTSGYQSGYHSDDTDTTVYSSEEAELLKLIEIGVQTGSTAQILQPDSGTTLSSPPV
Sequence of Atypical kinase COQ8B, mitochondrial (Homo sapiens) (Q96D53 whole entry): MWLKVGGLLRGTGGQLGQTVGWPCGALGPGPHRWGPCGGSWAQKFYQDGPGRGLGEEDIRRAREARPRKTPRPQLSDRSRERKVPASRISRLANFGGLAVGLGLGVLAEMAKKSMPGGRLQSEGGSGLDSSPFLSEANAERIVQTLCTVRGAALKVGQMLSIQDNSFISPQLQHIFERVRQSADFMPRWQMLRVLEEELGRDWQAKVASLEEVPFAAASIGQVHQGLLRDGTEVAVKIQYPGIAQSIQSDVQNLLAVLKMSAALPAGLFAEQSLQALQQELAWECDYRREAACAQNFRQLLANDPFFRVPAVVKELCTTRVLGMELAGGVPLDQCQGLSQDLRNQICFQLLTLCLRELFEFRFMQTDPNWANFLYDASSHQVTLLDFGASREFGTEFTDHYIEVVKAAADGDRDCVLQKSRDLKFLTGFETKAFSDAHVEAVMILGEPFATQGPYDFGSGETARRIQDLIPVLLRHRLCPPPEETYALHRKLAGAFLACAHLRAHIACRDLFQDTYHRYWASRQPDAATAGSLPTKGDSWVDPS
Sequence of Aurora kinase B (Homo sapiens) (Q96GD4 whole entry): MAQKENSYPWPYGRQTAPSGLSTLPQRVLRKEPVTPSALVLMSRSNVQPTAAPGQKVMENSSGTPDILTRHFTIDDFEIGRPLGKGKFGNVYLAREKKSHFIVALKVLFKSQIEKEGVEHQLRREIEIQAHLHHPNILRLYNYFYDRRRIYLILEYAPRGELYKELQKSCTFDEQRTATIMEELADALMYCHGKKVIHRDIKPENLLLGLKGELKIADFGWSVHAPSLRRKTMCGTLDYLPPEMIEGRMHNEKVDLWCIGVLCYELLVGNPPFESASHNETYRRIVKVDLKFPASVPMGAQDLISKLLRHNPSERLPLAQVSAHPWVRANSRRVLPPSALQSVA

With `O=C1c2ccc(Nc3ccc(F)cc3F)cc2CCc2ccc(OC[C@H](O)CO)cc21` [Skepinone-L], the Activity in data set [1] turned out to be 91%; in data set [2], 102%; in [3] it was 106%; in data set [4], 72%; in data set [5], 111%; in [7], 96%. Further, the Activity is 79% in data set [9], 89% in [10] and 100% in data set [11]. The inhibition at 10 µM in [6] was found to be 42%. In addition, in data set [8], the IC50 amounted to 60 nM.
